The values below come from patent US6608078B2, “Antibacterial chiral 8-(substituted piperidino)-benzo [i,j] quinolizines, processes, compositions and methods of treatment” (Wockhardt Limited, priority 2000, dated 2003).

Common to all, as to assay type: cell-based
For one assay, the system named is E. coli. The experiment in a line: In-vitro antimicrobial test (MIC, NCCLS protocol). To be noted: standard NCCLS protocol. An excerpt:
(§1) The activity of the compounds of the invention in-vitro can be illustrated as follows:
(§2) The test method was in accordance with the standard NCCLS protocol.

The subject of a further assay is MRSA. Nature of the assay: In-vitro antimicrobial test (MIC, NCCLS protocol). The following applies: standard NCCLS protocol.
Excerpt: as §1, §2

The test system of another assay is P. aeruginosa. Nature of the assay: In-vitro antimicrobial test (MIC, NCCLS protocol). To be noted: standard NCCLS protocol.
Excerpt: as §1, §2

The next assay deals with VRE. Nature of the assay: In-vitro antimicrobial test (MIC, NCCLS protocol). To be noted: standard NCCLS protocol.
Excerpt: as §1, §2

A further assay relates to S. pneumoniae. The experiment in a line: In-vitro antimicrobial test (MIC, NCCLS protocol). The following applies: standard NCCLS protocol.
Excerpt: as §1, §2

For a further assay, the system named is S. pyogenes ATCC 25147. Nature of the assay: % Killing of Streptococci at 4 MIC, 8 hrs. The source says: (§3) Comparison of a typical compound of the invention vs S-(−)-9-fluoro-8-(4′-hydroxypiperidin-1-yl)-5-methyl-6,7-dihydro-1-oxo-1H-5H-benzo[i,j]quinolizine-2-carboxylic acid in terms of % Killing of Streptococci
(§4) As against this, a typical compound of the invention, which has an improved bactericidal power againt streptococci, consistently brings about killing of 99% of streptococcal population.

Another assay concerns S. sanguis ATCC 10556. The experiment in a line: % Killing of Streptococci at 4 MIC, 8 hrs.
Excerpt: as §3, §4

Another assay relates to S. pneumoniae ATCC 6303. Nature of the assay: % Killing of Streptococci at 4 MIC, 8 hrs.
Excerpt: as §3, §4

The subject of the next assay is S. salivarius ATCC 13419. The experiment in a line: % Killing of Streptococci at 4 MIC, 8 hrs.
Excerpt: as §3, §4

The next assay concerns streptococcal population. Nature of the assay: % Killing of Streptococci, summary over strains. The following applies: exposed to 4×MIC concentrations for 8 hours; depending upon the streptococcal strain.
Excerpt: as §3, §4

In brackets after ≈: the same amount, converted by molar mass.

What is called MIC is the lowest concentration that inhibits growth of the organism. `CC1CN(c2c(F)cc3c(=O)c(C(=O)O)cn4c3c2CC[C@@H]4C)CCC1O` (mixture of isomers) [Compound A, S-(−)-9-fluoro-6,7-dihydro-8-{trans-4-(RS)-hydroxy-3-(RS)-methylpiperidin-1-yl}-5-methyl-1-oxo-1H,5H-benzo[i,j]quinolizine-2-carboxylic acid]: the MIC against E. coli is 0.2 µg/mL (≈ 0.534 µM); against MRSA, 0.4 µg/mL (≈ 1.07 µM); against P. aeruginosa it was 3.12 µg/mL (≈ 8.33 µM); against VRE, 6.25 µg/mL (≈ 16.7 µM); in the assay on S. pneumoniae, 0.2 µg/mL (≈ 0.534 µM).

Regarding `CC1CN(c2c(F)cc3c(=O)c(C(=O)O)cn4c3c2CC[C@@H]4C)CCC1O` (mixture of isomers) [Compound B], the MIC against E. coli came to 0.2 µg/mL (≈ 0.534 µM); with MRSA, 0.8 µg/mL (≈ 2.14 µM); against P. aeruginosa, 6.25 µg/mL (≈ 16.7 µM); against VRE, 6.25 µg/mL (≈ 16.7 µM); in the assay on S. pneumoniae it was 0.2 µg/mL (≈ 0.534 µM).

`CC1CCc2c(N3CCC(O)CC3)c(F)cc3c(=O)c(C(=O)O)cn1c23` (racemic) [Ref. 1, RS(±)-9-fluoro-8-(4′-hydroxypiperidin-1-yl)-5-methyl-6,7-dihydro-1-oxo-1H-5H-benzo[i,j]quinolizine-2-carboxylic acid, reference compound]: the MIC turned out to be 0.4 µg/mL (≈ 1.11 µM) in the assay on E. coli; 1.56 µg/mL (≈ 4.33 µM) in the assay on MRSA; 6.25 µg/mL (≈ 17.3 µM) in the assay with P. aeruginosa; 12.5 µg/mL (≈ 34.7 µM) against VRE; 0.4 µg/mL (≈ 1.11 µM) in the assay with S. pneumoniae.

For the compound `C[C@H]1CN(c2c(F)cc3c(=O)c(C(=O)O)cn4c3c2CC[C@@H]4C)CC[C@H]1O` (relative stereo) [Compound C, S-(−)-9-fluoro-6,7-dihydro-8-{cis-(−)-4-R-hydroxy-3-S-methylpiperidin-1-yl}-5-methyl-1-oxo-1H,5H-benzo[i,j]quinolizine-2-carboxylic acid], the MIC against E. coli came out at 0.1 µg/mL (≈ 0.267 µM); against MRSA, 0.8 µg/mL (≈ 2.14 µM); with P. aeruginosa, 6.25 µg/mL (≈ 16.7 µM); against VRE it was 6.25 µg/mL (≈ 16.7 µM); in the assay with S. pneumoniae, 0.1 µg/mL (≈ 0.267 µM).

Consider `C[C@@H]1CN(c2c(F)cc3c(=O)c(C(=O)O)cn4c3c2CC[C@@H]4C)CC[C@@H]1O` (relative stereo) [Compound D, S-(−)-9-fluoro-6,7-dihydro-8-{cis-(+)-4-S-hydroxy-3-R-methylpiperidin-1-yl}-5-methyl-1-oxo-1H,5H-benzo[i,j]quinolizine-2-carboxylic acid], for which the MIC in the assay with E. coli is 0.2 µg/mL (≈ 0.534 µM); in the assay on MRSA, 0.8 µg/mL (≈ 2.14 µM); in the assay with P. aeruginosa, 6.25 µg/mL (≈ 16.7 µM); with VRE, 6.25 µg/mL (≈ 16.7 µM); in the assay with S. pneumoniae, 0.8 µg/mL (≈ 2.14 µM).

`CCC1CN(c2c(F)cc3c(=O)c(C(=O)O)cn4c3c2CC[C@@H]4C)CCC1O` (stereo partly drawn) [Compound E, S-(−)-9-fluoro-6,7-dihydro-8-(3-ethyl-4-hydroxypiperidin-1-yl)-5-methyl-1-oxo-1H,5H-benzo[i,j]quinolizine-2-carboxylic acid]: the MIC in the assay with E. coli was 0.8 µg/mL (≈ 2.06 µM); in the assay on MRSA, 1.56 µg/mL (≈ 4.02 µM); with P. aeruginosa it was >12.5 µg/mL; with VRE, 12.5 µg/mL (≈ 32.2 µM); in the assay with S. pneumoniae, 0.2 µg/mL (≈ 0.515 µM).

With `C[C@H]1CCc2c(N3CCC(O)CC3)c(F)cc3c(=O)c(C(=O)O)cn1c23` [Ref. 2, S-(−)-9-fluoro-8-(4′-hydroxypiperidin-1-yl)-5-methyl-6,7-dihydro-1-oxo-1H-5H-benzo[i,j]quinolizine-2-carboxylic acid, reference compound], the “4 MIC-% Kill at 8 hrs.” value in the assay with S. pyogenes ATCC 25147 was found to be 45.4%; in the assay with S. sanguis ATCC 10556 it was 40%; with S. pneumoniae ATCC 6303, 50%; in the assay with S. salivarius ATCC 13419, 0%. For the same compound, the MIC is 0.2 µg/mL (≈ 0.555 µM) in the assay with E. coli; 0.8 µg/mL (≈ 2.22 µM) with MRSA; 3.12 µg/mL (≈ 8.66 µM) in the assay on P. aeruginosa; 6.25 µg/mL (≈ 17.3 µM) in the assay on VRE; 0.2 µg/mL (≈ 0.555 µM) in the assay with S. pneumoniae. Further, the “killing of streptococcal population” value with streptococcal population is recorded as ≤ 50%.

In the case of `CC1CN(c2c(F)cc3c(=O)c(C(=O)O)cn4c3c2CC[C@@H]4C)CCC1O` (stereo partly drawn) [Typical compound of the invention, S-(-)-9-fluoro-6,7-dihydro-8-(4-hydroxy-3-methylpiperidin-1-yl)-5-methyl-1-oxo-1H,5H-benzo[i,j]quinolizine-2-carboxylic acid], the “4 MIC-% Kill at 8 hrs.” value with S. pyogenes ATCC 25147 is 98.4%; with S. sanguis ATCC 10556, 98.6%; in the assay with S. pneumoniae ATCC 6303, 99.8%; in the assay with S. salivarius ATCC 13419, 99.7%. The “killing of streptococcal population” value in the assay with streptococcal population turned out to be 99%.
